# In ChEMBL document CHEMBL1143926, “Synthesis of novel analogues of (+)-varitriol via olefin cross-metathesis reaction” (Bioorg Med Chem Lett, 2008):
# Active and inactive are the calls of the source. The calls are words filed in the database; no cut-off is given here.
# Experiments:
# HT-29 = test: Cytotoxicity against human HT29 cells after 24 hrs by MTT assay; format: functional
# A549 = test: Cytotoxicity against human A549 cells after 24 hrs by MTT assay; format: functional, cell-based
# [1] = Cytotoxicity against mouse RAW2647 cells after 24 hrs by MTT assay; format: cell-based, RAW264.7; settings: for Activity: raw264.7, 24 h; for GI50 at 24 h: RAW2647 cells
# RXF 393 = test: Cytotoxicity against human RXF393 cells; format: functional
# SNB-19 = test: Cytotoxicity against human SNB19 cells; format: functional
# T47D = test: Cytotoxicity against human T47D cells; format: functional
# HL-60 = test: Cytotoxicity against human HL60 cells; format: functional
# COLO 205 = test: Cytotoxicity against human COLO205 cells; format: functional
# DU-145 = test: Cytotoxicity against human DU145 cells; format: functional
# SNB-75 = test: Cytotoxicity against human SNB75 cells; format: functional
# CCRF-CEM = test: Cytotoxicity against human CCRF-CEM cells; format: functional
# OVCAR-5 = test: Cytotoxicity against human OVCAR5 cells; format: functional
Structure (SMILES),GI50 (HT-29),Activity (A549),GI50 at 24 h [1] [µM],other results
COc1cc(/C=C/[C@H]2O[C@@H]3OC(C)(C)O[C@@H]3[C@H]2O)cc(OC)c1,20 10^-4 M,inactive,–,Activity [1]: Not Active
COc1cccc(/C=C/C2OC(C)C(O)C2O)c1CO (racemic) [(+/-)-VARITRIOL],–,–,–,GI50 (RXF 393): 0.163 µM; GI50 (SNB-19): 91.3 µM; GI50 (T47D): 0.21 µM; GI50 (HL-60): 25.2 µM; GI50 (COLO 205): 95.9 µM; GI50 (DU-145): 1.1 µM; GI50 (SNB-75): 0.244 µM; GI50 (CCRF-CEM): 26 µM; GI50 (OVCAR-5): 68.2 µM
COc1ccc(/C=C/[C@H]2OC(OC)[C@@H]3OC(C)(C)O[C@H]23)cc1 (stereo not given in full),4.7 10^-4 M,inactive,696,–
COc1cccc(/C=C/[C@H]2OC(OC)[C@@H]3OC(C)(C)O[C@H]23)c1 (stereo not given in full),–,inactive,–,Activity (HT-29): inactive; Activity [1]: Not Active
COc1cc(/C=C/[C@H]2OC(OC)[C@@H]3OC(C)(C)O[C@H]23)cc2c1OCO2 (stereo not given in full),14 10^-4 M,inactive,462,–
COc1cc(/C=C/[C@H]2OC(OC)[C@@H]3OC(C)(C)O[C@H]23)cc(OC)c1 (stereo not given in full),–,inactive,541,Activity (HT-29): inactive
COc1cc(/C=C/[C@H]2OC(OC)[C@@H]3OC(C)(C)O[C@H]23)ccc1O (stereo not given in full),13.2 10^-4 M,inactive,835,–
COc1cccc(/C=C/[C@H]2O[C@@H]3OC(C)(C)O[C@@H]3[C@H]2O)c1,17.5 10^-4 M,inactive,671,–
